Data set [1] in a line: Pharmacokinetics of oral EVL in rats without and with coadministered curcumin. The format is in vivo. The conditions noted are these: for AUC(0-t): male, Sprague-Dawley, rat, whole blood, po, 0.5 mg/kg, AUC0-540, area under the blood concentration-time curve from 0 to 540 min.
The conditions of data set [2]: cited from earlier work.
A further data set deals with CYP3A4 (Homo sapiens, UniProt P08684). Briefly: Vivid CYP450 screening kit, recombinant CYP 3A4 activity. The format is biochemical. The conditions noted are these: recombinant CYP3A4 BACULOSOMES, probe Vivid BOMR.
Sequence of CYP3A4 (P08684 whole entry): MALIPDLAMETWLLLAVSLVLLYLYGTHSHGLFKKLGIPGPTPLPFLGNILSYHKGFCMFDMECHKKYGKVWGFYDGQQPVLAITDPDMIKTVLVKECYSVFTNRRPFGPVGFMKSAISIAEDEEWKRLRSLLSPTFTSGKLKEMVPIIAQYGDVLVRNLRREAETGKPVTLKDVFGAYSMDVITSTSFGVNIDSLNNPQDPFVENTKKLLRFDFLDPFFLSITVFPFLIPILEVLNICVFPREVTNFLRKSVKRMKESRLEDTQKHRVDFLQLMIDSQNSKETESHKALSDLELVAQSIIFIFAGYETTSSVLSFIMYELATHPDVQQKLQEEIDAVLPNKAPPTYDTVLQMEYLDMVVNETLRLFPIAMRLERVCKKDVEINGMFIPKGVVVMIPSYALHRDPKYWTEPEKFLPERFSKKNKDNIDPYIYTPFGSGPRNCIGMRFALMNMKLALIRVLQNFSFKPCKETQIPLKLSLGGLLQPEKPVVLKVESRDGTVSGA
Another data set addresses P-gp (Homo sapiens, UniProt P08183). Briefly: P-gp mediated transport of rhodamine 123. The conditions noted are these: LS 180 cells, 4-h incubation. The format is cell-based.
Setting [3] is: EVL 0.5 mg/kg + curcumin 50 mg/kg.
Where [4] appears, read: EVL 0.5 mg/kg + curcumin 100 mg/kg.

Sequence of P-gp (P08183 whole entry): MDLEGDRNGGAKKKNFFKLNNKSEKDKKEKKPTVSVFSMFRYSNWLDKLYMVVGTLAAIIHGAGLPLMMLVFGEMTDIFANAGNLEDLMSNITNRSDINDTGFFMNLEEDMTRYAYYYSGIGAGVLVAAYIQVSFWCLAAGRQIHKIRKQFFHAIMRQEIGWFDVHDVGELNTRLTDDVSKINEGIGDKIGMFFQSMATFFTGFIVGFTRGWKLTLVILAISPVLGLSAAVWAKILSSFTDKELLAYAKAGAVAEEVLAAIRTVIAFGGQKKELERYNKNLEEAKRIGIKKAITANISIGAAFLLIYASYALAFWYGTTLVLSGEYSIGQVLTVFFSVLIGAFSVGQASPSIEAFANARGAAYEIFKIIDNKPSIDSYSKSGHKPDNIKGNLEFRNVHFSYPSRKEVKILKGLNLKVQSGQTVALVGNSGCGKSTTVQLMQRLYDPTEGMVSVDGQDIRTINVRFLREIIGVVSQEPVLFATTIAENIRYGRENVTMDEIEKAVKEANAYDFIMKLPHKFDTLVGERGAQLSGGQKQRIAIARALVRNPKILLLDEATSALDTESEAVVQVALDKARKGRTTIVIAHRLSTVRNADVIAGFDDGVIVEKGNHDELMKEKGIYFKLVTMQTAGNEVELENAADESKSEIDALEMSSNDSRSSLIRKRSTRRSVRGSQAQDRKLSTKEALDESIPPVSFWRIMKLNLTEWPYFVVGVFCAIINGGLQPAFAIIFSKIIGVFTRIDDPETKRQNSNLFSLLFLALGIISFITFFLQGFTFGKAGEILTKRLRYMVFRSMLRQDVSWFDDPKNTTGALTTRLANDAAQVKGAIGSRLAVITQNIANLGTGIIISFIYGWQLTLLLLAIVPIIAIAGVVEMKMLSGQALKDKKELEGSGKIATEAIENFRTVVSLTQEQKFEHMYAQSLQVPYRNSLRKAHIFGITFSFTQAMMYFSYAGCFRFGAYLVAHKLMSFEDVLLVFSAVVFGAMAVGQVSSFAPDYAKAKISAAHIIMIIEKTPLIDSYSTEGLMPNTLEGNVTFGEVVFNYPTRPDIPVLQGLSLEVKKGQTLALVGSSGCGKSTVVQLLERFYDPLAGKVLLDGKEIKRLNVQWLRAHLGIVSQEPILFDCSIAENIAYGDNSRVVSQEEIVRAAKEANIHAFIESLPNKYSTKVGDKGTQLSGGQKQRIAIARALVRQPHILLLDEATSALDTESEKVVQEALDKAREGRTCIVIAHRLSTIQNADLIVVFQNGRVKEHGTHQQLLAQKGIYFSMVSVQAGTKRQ

For `CO[C@H]1C[C@@H]2CC[C@@H](C)[C@@](O)(O2)C(=O)C(=O)N2CCCC[C@H]2C(=O)O[C@H]([C@H](C)C[C@@H]2CC[C@@H](OCCO)[C@H](OC)C2)CC(=O)[C@H](C)/C=C(\C)[C@@H](O)[C@@H](OC)C(=O)[C@H](C)C[C@H](C)/C=C/C=C/C=C/1C` [EVL, Everolimus], the “Change of AUC0-540 versus EVL alone” value in data set [1] (setting [3]) is on record as −70.6%; in data set [1] (setting [4]) it was −71.5%. For the same compound, the “Change of Cmax versus EVL alone” value in data set [1] (setting [3]) and in data set [1] (setting [4]) was −76.7% throughout. In data set [1] (setting [4]), the “Change of MRT versus EVL alone” value amounted to 35.3%. The AUC(0-t) was 8.03 ng·h/mL in data set [1] (oral EVL 0.5 mg/kg + curcumin 50 mg/kg), 7.77 ng·h/mL in data set [1] (oral EVL 0.5 mg/kg + curcumin 100 mg/kg) and 27.3 ng·h/mL in data set [1] (oral EVL 0.5 mg/kg alone). Moreover, the Half-life in data set [2] is 18 to 35 h. The Oral bioavailability in data set [2] is 15–16%. For the same compound, in data set [2] (oral), the “Time to peak concentration” value is 0.5 to 4.0 h.
`O=C(/C=C/c1ccc(O)cc1)CC(=O)/C=C/c1ccc(O)cc1` [bis-demethoxycurcumin]: at CYP3A4, the inhibition at 30 min, 0.5 µM came out at 10% and the inhibition at 30 min, 1 µM was found to be 10%.
`COc1cc(/C=C/C(=O)CC(=O)/C=C/c2ccc(O)c(OC)c2)ccc1O` [curcumin, Diferuloylmethane]: the “Effect on the MRT of EVL by coadministered curcumin” value in data set [1] (curcumin 50 mg/kg oral with EVL 0.5 mg/kg) is on record as “not affected”. Moreover, the results for the “Decrease of the efflux function of P-gp (rhodamine 123 accumulation)” value on P-gp (25 μM), at P-gp (50 μM) and at P-gp (100 μM) were 13.2%, 16.7% and 172.9%, respectively. Further, the inhibition at 30 min, 5 µM on CYP3A4 amounted to 93%. The inhibition at 30 min, 10 µM at CYP3A4 stood at 90%.
For the compound `COc1cc(/C=C/C(O)=C/C(=O)/C=C/c2ccc(O)cc2)ccc1O` [demethoxycurcumin], on CYP3A4, the inhibition at 30 min, 5 µM was 21% and the inhibition at 30 min, 10 µM is 53%.

The term AUC(0-t) denotes the area under the concentration-time curve up to a stated or last time point. As a reminder, the inhibition is the relative decrease from the control value, in per cent.

Source of the values: publication PMC5377466 (Scientific Reports, 2014).
